Laboratory results reported in PMC9626498 (Scientific Reports, 2022).

Tests used:
[1] = biological target: acetylcholinesterase (AChE) (Electrophorus electricus, UniProt O42275); assay: modified Ellman spectrophotometric assay; format: biochemical
[2] = biological target: butyrylcholinesterase (BChE) (Equus caballus, UniProt P81908); assay: modified Ellman spectrophotometric assay; format: biochemical
Sequence of butyrylcholinesterase (BChE) (P81908 whole entry): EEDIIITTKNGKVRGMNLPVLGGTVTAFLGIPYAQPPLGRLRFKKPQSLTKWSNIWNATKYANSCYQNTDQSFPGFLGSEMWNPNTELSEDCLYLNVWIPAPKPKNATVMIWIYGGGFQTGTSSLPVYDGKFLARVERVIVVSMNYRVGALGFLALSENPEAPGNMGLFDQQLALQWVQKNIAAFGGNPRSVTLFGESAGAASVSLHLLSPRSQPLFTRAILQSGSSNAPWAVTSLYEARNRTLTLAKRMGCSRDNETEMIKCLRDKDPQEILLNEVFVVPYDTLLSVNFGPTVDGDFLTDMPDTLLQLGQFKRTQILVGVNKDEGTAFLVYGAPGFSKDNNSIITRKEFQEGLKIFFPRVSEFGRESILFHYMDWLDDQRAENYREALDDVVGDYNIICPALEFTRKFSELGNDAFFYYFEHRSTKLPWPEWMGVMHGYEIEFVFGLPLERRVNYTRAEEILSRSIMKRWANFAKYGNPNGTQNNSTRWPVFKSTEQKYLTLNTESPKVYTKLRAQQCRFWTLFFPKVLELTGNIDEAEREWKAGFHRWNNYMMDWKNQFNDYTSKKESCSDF

Sequence of acetylcholinesterase (AChE) (O42275 24-633): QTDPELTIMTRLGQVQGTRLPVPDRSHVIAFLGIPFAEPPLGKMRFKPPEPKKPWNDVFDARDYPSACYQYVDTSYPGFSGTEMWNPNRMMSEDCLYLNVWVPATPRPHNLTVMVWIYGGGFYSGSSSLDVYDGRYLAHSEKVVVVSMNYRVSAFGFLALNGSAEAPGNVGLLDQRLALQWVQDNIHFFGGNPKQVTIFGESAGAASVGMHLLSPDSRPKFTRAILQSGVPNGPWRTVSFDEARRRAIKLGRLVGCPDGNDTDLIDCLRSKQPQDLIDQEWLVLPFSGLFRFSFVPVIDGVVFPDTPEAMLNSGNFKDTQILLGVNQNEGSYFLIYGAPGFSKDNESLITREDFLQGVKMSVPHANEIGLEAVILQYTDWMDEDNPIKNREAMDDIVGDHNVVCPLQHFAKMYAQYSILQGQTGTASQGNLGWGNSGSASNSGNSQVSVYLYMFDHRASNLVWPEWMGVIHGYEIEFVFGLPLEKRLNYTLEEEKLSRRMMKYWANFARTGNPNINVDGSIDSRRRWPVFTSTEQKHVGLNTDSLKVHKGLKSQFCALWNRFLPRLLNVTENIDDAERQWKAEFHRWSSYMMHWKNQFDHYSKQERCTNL

SMILES: C[C@@H]1O[C@@H](O[C@H]2C(=O)c3c(O)cc(O)cc3O[C@@H]2c2cc(O)c(O)c(O)c2)[C@H](O)[C@H](O)[C@H]1O [compound 1, dihydromyricetin 3-O-rhamnoside]
- IC50 [1]: 70 ± 8 µM
- IC50 [2]: 71 ± 4 µM
